A word on the mass density: it is the mass of a sample divided by its volume. By vapor or sublimation pressure is commonly meant the pressure of vapour in equilibrium with the condensed phase. Broadly, the refractive index is the speed of light in vacuum divided by its phase velocity in the sample.

We go through one molecule from the NIST ThermoML archive (doi:10.1016/j.jct.2006.03.017).

Numbers after ± are expanded uncertainties.

The conditions of data set [1]: Liquid.
Data set [2] is described as follows: refractive index (Na D-line) (dimensionless). Conditions: 293.15 K; 101.33 kPa; Liquid; Standard Abbe refractometry.

On to `CCCCCCCC/C=C\CCCCCCCCO` [(Z)-9-octadecen-1-ol], for which the mass density in data set [1] (293.15 K, 101.33 kPa) was determined as 848.5 ± 44 kg/m3. In addition, the “vapor or sublimation pressure” value in data set [1] (480.05 K, Distillation) amounted to 2 kPa. In addition, the refractive index in data set [2] is reported as 1.4603 ± 0.0032.
